Calls of active or inactive are those of the source. The calls are words filed in the database; no cut-off is given here.

This assay concerns Leishmania donovani. Description: Antileishmanial activity against Leishmania donovani MHOM/IN/80/Dd8 amastigotes infected in golden hamster assessed as inhibition of parasite growth at 50 mg/kg, ip for 5 days post infection measured on day 7 by Giemsa staining. The assay is classed as functional. The note with it: for inhibition in vivo at 50 mg/kg: Leishmania donovani, MHOM/IN/80/Dd8, ip, read-out: GI.

For `CC1=CCCC(C)(C)C1/C=C/c1cc(C(=O)Nc2ccc(Cl)cc2)no1` (stereo not given), for the setting “route intraperitoneal”, the inhibition in vivo at 50 mg/kg stood at 63%.

`CC1=CCCC(C)(C)C1/C=C/c1cc(C(=O)O)no1` (stereo not given): the inhibition in vivo at 50 mg/kg (route intraperitoneal) worked out at 45%.

For `CC1=CCCC(C)(C)C1/C=C/c1cc(C(=O)Nc2ccccc2)no1` (stereo not given), the inhibition in vivo at 50 mg/kg (route intraperitoneal) was 74%.

With `CCOC(=O)C(=O)CC(=O)/C=C/C1C(C)=CCCC1(C)C` (stereo not given), the “growth inhibition (GI)” value was “inactive”.

`CC1=CCCC(C)(C)C1/C=C/c1cc(C(=O)NN)no1` (stereo not given): under “route intraperitoneal”, the inhibition in vivo at 50 mg/kg is 50%.

Take `CC1=CCCC(C)(C)C1/C=C/c1cc(C(=O)NC2CCCCC2)no1` (stereo not given): the inhibition in vivo at 50 mg/kg (route intraperitoneal) was found to be 70%.

Take `CC1=CCCC(C)(C)C1/C=C/c1cc(C(=O)[N-]N)no1.[Na+]` (stereo not given): the “growth inhibition (GI)” value (route intraperitoneal) is recorded as 70%.

On to `CC1=CCCC(C)(C)C1/C=C/c1cc(C(=O)NO)no1` (stereo not given), for which, where the note is “route intraperitoneal”, the inhibition in vivo at 50 mg/kg turned out to be 65%.

Take `CC1=CCCC(C)(C)C1/C=C/c1cc(C(=O)N2CCOCC2)no1` (stereo not given): the “growth inhibition (GI)” value was “inactive”.

On to `CC1=CCCC(C)(C)C1/C=C/c1cc(C(=O)N[O-])no1.[Na+]` (stereo not given), for which the “growth inhibition (GI)” value (route intraperitoneal) is reported as 71%.

On to `CCOC(=O)c1cc(/C=C/C2C(C)=CCCC2(C)C)on1` (stereo not given), for which, where the note is “route intraperitoneal”, the inhibition in vivo at 50 mg/kg was 76%.

On to `CC1=CCCC(C)(C)C1/C=C/c1cc(C(=O)N2CCN(c3ccccc3)CC2)no1` (stereo not given), for which the “growth inhibition (GI)” value was “inactive”.

Turning to `COc1ccc(NC(=O)c2cc(/C=C/C3C(C)=CCCC3(C)C)on2)cc1` (stereo not given), the inhibition in vivo at 50 mg/kg (route intraperitoneal) was found to be 58%.

Consider `NC[C@@H]1O[C@H](O[C@H]2[C@@H](O)[C@H](O[C@@H]3[C@@H](O)[C@H](N)C[C@H](N)[C@H]3O[C@H]3O[C@H](CO)[C@@H](O)[C@H](O)[C@H]3N)O[C@@H]2CO)[C@H](N)[C@@H](O)[C@@H]1O` [PAROMOMYCIN], for which the inhibition in vivo at 50 mg/kg (route intraperitoneal) is 46.7%.

In the case of Sodium stibogluconate, the growth inhibition (GI) is 89%.

Values taken from ChEMBL document CHEMBL2157967, “Chemotherapy of leishmaniasis. Part XI: synthesis and bioevaluation of novel isoxazole containing heteroretinoid and its amide derivatives” (2012).
